Results: patent US10144742B2 (Millennium Pharmaceuticals, Inc., priority 2014, dated 2018)

Columns and labels:
hNAMPT protein = hNAMPT protein (Homo sapiens (Human), UniProt P43490); assay: NAMPT enzyme assay (TR-FRET/HTRF, BodiPY ligand, anti 6His-Tb); type: binding; conditions: for IC50: NAMPT IC50 range class, read-out: IC50; for inhibition at 1 µM: compound concentration 1 μM, read-out: Percent Inhibition
Outline: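 Compound or DMSO was incubated for 1 h at room temperature, protected from light, with BodiPY ligand and hNAMPT labelled by terbium anti-6His antibody. The 520 nm to 486 nm emission ratio after 320 nm excitation gave inhibition versus vehicle, from which concentration-response curves yielded IC50.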

PC3 cells = assay: PC3 growth inhibition (Cell-titer glo, 72 hours); type: cell-based; conditions: Homo sapiens, PC-3; compound concentration 1.667 μM; PC3 cells, 72 hours, Cell-titer glo; read-out: Percent Inhibition (PC3 growth inhibition)
Outline: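 Compounds in AIM serum-free medium were applied for 72 h at 37 °C, 5% CO2 to PC3 cells plated overnight from RPMI1640 culture. Luminescence after 10 min CellTiter-Glo, normalised to DMSO, gave % viability at 1 μM or 1.667 μM, or GI50/LD50.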

Chain of hNAMPT protein (P43490 whole entry): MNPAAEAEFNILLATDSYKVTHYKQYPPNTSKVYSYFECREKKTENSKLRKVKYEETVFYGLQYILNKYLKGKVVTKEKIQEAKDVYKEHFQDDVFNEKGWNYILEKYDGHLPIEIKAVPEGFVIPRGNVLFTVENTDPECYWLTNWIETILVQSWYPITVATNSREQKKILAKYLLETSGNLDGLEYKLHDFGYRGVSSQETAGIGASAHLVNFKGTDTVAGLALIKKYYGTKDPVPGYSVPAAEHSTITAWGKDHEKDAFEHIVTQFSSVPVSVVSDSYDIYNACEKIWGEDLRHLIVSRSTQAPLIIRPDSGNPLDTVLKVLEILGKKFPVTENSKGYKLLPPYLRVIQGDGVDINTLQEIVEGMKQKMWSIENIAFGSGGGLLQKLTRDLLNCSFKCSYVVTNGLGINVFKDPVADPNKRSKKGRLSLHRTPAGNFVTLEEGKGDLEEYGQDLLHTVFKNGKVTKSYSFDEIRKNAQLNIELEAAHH

## Cc1ccc(-c2nc3cc(C(=O)NCCCc4ncc[nH]4)ccc3nc2-c2ccc(F)cc2)cc1F [Compound I-311, 3-(3-fluoro-4-methylphenyl)-2-(4-fluorophenyl)-N-[3-(1H-imidazol-2-yl)propyl]quinoxaline-6-carboxamide]
hNAMPT protein
  IC50: 100 to 500 nM
  inhibition at 1 µM: 76%
PC3 cells
  inhibition at 1.667 µM: 2%

## O=C(NCCCc1ncc[nH]1)c1ccc2nc(-c3ccc(F)cc3)c(-c3cccc(Cl)c3F)nc2c1 [Compound I-312, 3-(3-chloro-2-fluorophenyl)-2-(4-fluorophenyl)-N-[3-(1H-imidazol-2-yl)propyl]quinoxaline-6-carboxamide]
hNAMPT protein
  IC50: < 100 nM
  inhibition at 1 µM: 94%
PC3 cells
  inhibition at 1.667 µM: 2%

## O=C(NCCCc1ncc[nH]1)c1ccc2nc(-c3ccc(F)cc3)c(-c3ccccc3F)nc2c1 [Compound I-313, 3-(2-fluorophenyl)-2-(4-fluorophenyl)-N-[3-(1H-imidazol-2-yl)propyl]quinoxaline-6-carboxamide]
hNAMPT protein
  IC50: 100 to 500 nM
  inhibition at 1 µM: 86%
PC3 cells
  inhibition at 1.667 µM: 2%

## O=C(NCCCc1ncc[nH]1)c1ccc2nc(OCC3CCCCC3)c(-c3ccc(F)cc3)nc2c1 [Compound I-314, 2-(cyclohexylmethoxy)-3-(4-fluorophenyl)-N-[3-(1H-imidazol-2-yl)propyl]quinoxaline-6-carboxamide]
hNAMPT protein
  IC50: < 100 nM
  inhibition at 1 µM: 91%
PC3 cells
  inhibition at 1.667 µM: 3%

## O=C(NCCCc1ncc[nH]1)c1ccc2nc(-c3ccc(Cl)cc3)c(-c3ccc(Cl)cc3)nc2c1 [Compound I-315, 2,3-bis(4-chlorophenyl)-N-[3-(1H-imidazol-2-yl)propyl]quinoxaline-6-carboxamide]
hNAMPT protein
  IC50: 100 to 500 nM
  inhibition at 1 µM: 88%
PC3 cells
  inhibition at 1.667 µM: 1%

## O=C(NCCCc1ncc[nH]1)c1ccc2nc(OCC3CC(F)(F)C3)c(-c3ccc(F)cc3)nc2c1 [Compound I-316, 2-[(3,3-difluorocyclobutyl)methoxy]-3-(4-fluorophenyl)-N-[3-(1H-imidazol-2-yl)propyl]quinoxaline-6-carboxamide]
hNAMPT protein
  IC50: < 100 nM
  inhibition at 1 µM: 98%
PC3 cells
  inhibition at 1.667 µM: 2%

## COc1cc(-c2nc3cc(C(=O)NCc4ccc5nccn5c4)ccc3nc2OC(C)C)c(F)cn1 [Compound I-317, 3-(5-fluoro-2-methoxypyridin-4-yl)-N-(imidazo[1,2-a]pyridin-6-ylmethyl)-2-isopropoxyquinoxaline-6-carboxamide]
hNAMPT protein
  IC50: 100 to 500 nM
  inhibition at 1 µM: 66%
PC3 cells
  inhibition at 1.667 µM: 1%

## O=C(NCCCc1ncc[nH]1)c1ccc2nc(OC3COC3)c(-c3ccc(Cl)cc3)nc2c1 [Compound I-318, 3-(4-chlorophenyl)-N-[3-(1H-imidazol-2-yl)propyl]-2-(oxetan-3-yloxy)quinoxaline-6-carboxamide]
hNAMPT protein
  IC50: < 100 nM
  inhibition at 1 µM: 97%
PC3 cells
  inhibition at 1.667 µM: 2%

## O=C(NCCCc1ncc[nH]1)c1ccc2nc(-c3ccc(F)cc3)c(-c3cc(F)ccc3F)nc2c1 [Compound I-319, 3-(2,5-difluorophenyl)-2-(4-fluorophenyl)-N-[3-(1H-imidazol-2-yl)propyl]quinoxaline-6-carboxamide]
hNAMPT protein
  IC50: < 100 nM
  inhibition at 1 µM: 94%
PC3 cells
  inhibition at 1.667 µM: 3%

## O=C(NCCCc1ncc[nH]1)c1ccc2nc(-c3ccc(F)cc3)c(-c3ccc4c(c3)OCCO4)nc2c1 [Compound I-320, 3-(2,3-dihydro-1,4-benzodioxin-6-yl)-2-(4-fluorophenyl)-N-[3-(1H-imidazol-2-yl)propyl]quinoxaline-6-carboxamide]
hNAMPT protein
  IC50: 500 to 1000 nM
  inhibition at 1 µM: 63%
PC3 cells
  inhibition at 1.667 µM: 3%

## Cn1cc(CCOc2nc3ccc(C(=O)NCCCc4ncc[nH]4)cc3nc2-c2ccc(F)cc2)cn1 [Compound I-321, 3-(4-fluorophenyl)-N-[3-(1H-imidazol-2-yl)propyl]-2-[2-(1-methyl-1H-pyrazol-4-yl)ethoxy]quinoxaline-6-carboxamide]
hNAMPT protein
  IC50: < 100 nM
  inhibition at 1 µM: > 99%
PC3 cells
  inhibition at 1.667 µM: 2%

## O=C(NCCCc1ncc[nH]1)c1ccc2nc(OCCO)c(-c3ccc(F)cc3)nc2c1 [Compound I-322, 3-(4-fluorophenyl)-2-(2-hydroxyethoxy)-N-[3-(1H-imidazol-2-yl)propyl]quinoxaline-6-carboxamide]
hNAMPT protein
  IC50: < 100 nM
  inhibition at 1 µM: 96%
PC3 cells
  inhibition at 1.667 µM: 2%

## O=C(NCCCc1ncc[nH]1)c1ccc2nc(OCC3CCCCO3)c(-c3ccc(F)cc3)nc2c1 (stereo not drawn) [Compound I-323, 3-(4-fluorophenyl)-N-[3-(1H-imidazol-2-yl)propyl]-2-(tetrahydro-2H-pyran-2-ylmethoxy)quinoxaline-6-carboxamide]
hNAMPT protein
  IC50: < 100 nM
  inhibition at 1 µM: 99%
PC3 cells
  inhibition at 1.667 µM: 3%

## O=C(NCCCc1ncc[nH]1)c1ccc2nc(-n3ccnc3)c(-c3ccc(F)cc3)nc2c1 [Compound I-324, 3-(4-fluorophenyl)-2-(1H-imidazol-1-yl)-N-[3-(1H-imidazol-2-yl)propyl]quinoxaline-6-carboxamide]
hNAMPT protein
  IC50: 500 to 1000 nM
  inhibition at 1 µM: 57%
PC3 cells
  inhibition at 1.667 µM: 3%

## O=C(NCCCc1ncc[nH]1)c1ccc2nc(-c3ccc(F)cc3)c(-c3cncs3)nc2c1 [Compound I-325, 2-(4-fluorophenyl)-N-[3-(1H-imidazol-2-yl)propyl]-3-(1,3-thiazol-5-yl)quinoxaline-6-carboxamide]
hNAMPT protein
  IC50: < 100 nM
  inhibition at 1 µM: > 99%
PC3 cells
  inhibition at 1.667 µM: 4%

## O=C(NCCCc1ncc[nH]1)c1ccc2nc(OCc3ccsc3)c(-c3ccc(F)cc3)nc2c1 [Compound I-326, 3-(4-fluorophenyl)-N-[3-(1H-imidazol-2-yl)propyl]-2-(3-thienylmethoxy)quinoxaline-6-carboxamide]
hNAMPT protein
  IC50: < 100 nM
  inhibition at 1 µM: 92%
PC3 cells
  inhibition at 1.667 µM: 3%

## CN1CCC(COc2nc3ccc(C(=O)NCCCc4ncc[nH]4)cc3nc2-c2ccc(F)cc2)CC1 [Compound I-327, 3-(4-fluorophenyl)-N-[3-(1H-imidazol-2-yl)propyl]-2-[(1-methylpiperidin-4-yl)methoxy]quinoxaline-6-carboxamide]
hNAMPT protein
  IC50: < 100 nM
  inhibition at 1 µM: > 99%
PC3 cells
  inhibition at 1.667 µM: 2%

## O=C(NCCCc1ncc[nH]1)c1ccc2nc(-c3ccc(F)cc3)c(-c3cccc(C(F)(F)F)c3)nc2c1 [Compound I-328, 2-(4-fluorophenyl)-N-[3-(1H-imidazol-2-yl)propyl]-3-[3-(trifluoromethyl)phenyl]quinoxaline-6-carboxamide]
hNAMPT protein
  IC50: 100 to 500 nM
  inhibition at 1 µM: 84%
PC3 cells
  inhibition at 1.667 µM: 3%

## O=C(NCCCc1ncc[nH]1)c1ccc2nc(OCC3CCC3)c(-c3ccc(F)cc3)nc2c1 [Compound I-329, 2-(cyclobutylmethoxy)-3-(4-fluorophenyl)-N-[3-(1H-imidazol-2-yl)propyl]quinoxaline-6-carboxamide]
hNAMPT protein
  IC50: < 100 nM
  inhibition at 1 µM: 95%
PC3 cells
  inhibition at 1.667 µM: 3%

## O=C(NCCCc1ncc[nH]1)c1ccc2nc(-n3nccn3)c(-c3ccc(F)cc3)nc2c1 [Compound I-330, N-(3-(1H-imidazol-2-yl)propyl)-3-(4-fluorophenyl)-2-(2H-1,2,3-triazol-2-yl)quinoxaline-6-carboxamide]
hNAMPT protein
  IC50: 100 to 500 nM
  inhibition at 1 µM: 79%
PC3 cells
  inhibition at 1.667 µM: 3%

## CNC1CC(Oc2nc3ccc(C(=O)NCCCc4ncc[nH]4)cc3nc2-c2ccc(F)cc2)C1 (stereo not drawn) [Compound I-331, 3-(4-fluorophenyl)-N-[3-(1H-imidazol-2-yl)propyl]-2-[3-(methylamino)cyclobutoxy]quinoxaline-6-carboxamide]
hNAMPT protein
  IC50: < 100 nM
  inhibition at 1 µM: > 99%
PC3 cells
  inhibition at 1.667 µM: 2%

## Cn1cc(COc2nc3ccc(C(=O)NCCCc4ncc[nH]4)cc3nc2-c2ccc(F)cc2)cn1 [Compound I-332, 3-(4-fluorophenyl)-N-[3-(1H-imidazol-2-yl)propyl]-2-[(1-methyl-1H-pyrazol-4-yl)methoxy]quinoxaline-6-carboxamide]
hNAMPT protein
  IC50: < 100 nM
  inhibition at 1 µM: > 99%
PC3 cells
  inhibition at 1.667 µM: 34%

## COc1cc(-c2nc3cc(C(=O)NCc4ccc5nccn5c4)ccc3nc2-c2ccc(F)cc2)c(F)cn1 [Compound I-333, 3-(5-fluoro-2-methoxypyridin-4-yl)-2-(4-fluorophenyl)-N-(imidazo[1,2-a]pyridin-6-ylmethyl)quinoxaline-6-carboxamide]
hNAMPT protein
  IC50: 100 to 500 nM
  inhibition at 1 µM: 63%
PC3 cells
  inhibition at 1.667 µM: 0%

## CC(C)Oc1nc2ccc(C(=O)NCCCc3ncc[nH]3)cc2nc1-c1ccc(Cl)s1 [Compound I-334, 3-(5-chloro-2-thienyl)-N-[3-(1H-imidazol-2-yl)propyl]-2-isopropoxyquinoxaline-6-carboxamide]
hNAMPT protein
  IC50: < 100 nM
  inhibition at 1 µM: > 99%
PC3 cells
  inhibition at 1.667 µM: 1%

## Cc1cc(C)cc(-c2nc3cc(C(=O)NCCCc4ncc[nH]4)ccc3nc2-c2ccc(F)cc2)c1 [Compound I-335, 3-(3,5-dimethylphenyl)-2-(4-fluorophenyl)-N-[3-(1H-imidazol-2-yl)propyl]quinoxaline-6-carboxamide]
hNAMPT protein
  IC50: 100 to 500 nM
  inhibition at 1 µM: 85%
PC3 cells
  inhibition at 1.667 µM: 2%

## Cc1ccc(F)cc1-c1nc2cc(C(=O)NCCCc3ncc[nH]3)ccc2nc1-c1ccc(F)cc1 [Compound I-336, 3-(5-fluoro-2-methylphenyl)-2-(4-fluorophenyl)-N-[3-(1H-imidazol-2-yl)propyl]quinoxaline-6-carboxamide]
hNAMPT protein
  IC50: 100 to 500 nM
  inhibition at 1 µM: 88%
PC3 cells
  inhibition at 1.667 µM: 1%
